Experimental data as given in patent US12403077B2, “Use of a new composition for preventing or slowing the appearance of signs of inflammation” (SOCIETE D'EXPLOITATION DE PRODUITS POUR LES INDUSTRIES …, priority 2018, dated 2025).
Marks after values point to notes of the source that are not given here.

What was measured:
TLR-3 = assay: IL-8 and hBD2 production by normal human keratinocytes, TLR-3 activated by poly(I:C) (ELISA); type: cell-based; settings: cells stimulated with poly(I:C), 100 nM
Protocol: The anti-inflammatory effect of compositions was evaluated on normal human keratinocytes under conditions imitating an imbalance in the cutaneous microbiota through the activation of 3 TLRs (Toll-Like Receptors). These receptors are activated by recognition of specific elements of the microbes, and their function is to alert the immune system in order to activate the body's defenses. In this model, the imbalance in the microbiota was modeled with various stimuli imitating a skin infection: • TLR-5 was activated by flagellin (the main protein of the flagellar filament, present in virtually all bacteria) • TLR-2 was activated by zymosan (glycoprotein complex extracted from yeast membranes) • TLR-3 was activated by poly(I:C) (a synthetic analog of the double-stranded RNA found in viruses)
The effect of the compositions tested was evaluated on the basis of their capacity to modulate the production of IL-8 and of hBD2 induced by these stimuli, using specific “ELISA” kits. The concentration of total proteins was also evaluated, in order to standardize the production of cytokin (IL-8) and of antimicrobial peptide (hBD2).
The values are expressed as means+/−sem [standard error of the mean=standard deviation/root (number of values)].
For each treatment, a calculation was made of: % protection=100×[mean (cells+treatment)−mean (stimulated cells)]/[mean (unstimulated cells)−mean (stimulated cells)] The statistical analysis of the results was conducted using a two-sided Student test with a significance threshold set at 5%, by pairwise comparison of the series of values. A difference between the efficacy of two products is considered to be: • significant if p<0.05; • “at the limit of significance” if 0.05≤p<0.1; • and not significant if p>0.1. B.2.2. Results Obtained In the three tables which follow: For stimulated cells: *** p<0.001 vs unstimulated cells. For treated and stimulated cells: *** p<0.001 vs stimulated cells. The results obtained following activation of TLR-5 by flagellin, the results are set out in table 10 below: […]

lipase = assay: Anti-lipase activity in tubo (1,2-diglyceride to glycerol, absorbance 570 nm); type: biochemical; settings: positive reference, concentration not given
Protocol: The subject of the method is to study the capacity of a composition to provoke and regulate the activity of the lipase enzyme by an in tubo method, said enzyme having an inflammatory action. Lipase has the capacity to convert the colorless 1,2-diglyceride into glycerol, which is pink in color. The samples for the evaluation test are placed in tubo in the presence of lipase and of 1,2-diglyceride, and the absorbance of the samples is measured in a spectrophotometer at a wavelength of 570 nm at the end of their preparation, then after 60 minutes of incubation at 37° C. under the same spectral conditions. By virtue of a range of glycerol, the lipase activity of the samples can be calculated, as can the percentage inhibition, by the following formulas: Lipase activity=(amount of glycerol formed between 0 and 60 minutes)/(60 minutes×sample volume) Percentage inhibition=100×[(lipase activity of control group)−(lipase activity of test product)]/(lipase activity of control group) Statistical Elements: The values are expressed as means+/−standard deviation. The statistical analysis of the results was conducted using a two-sided Student test with a significance threshold set at 5%, by pairwise comparison of the series of values. […]

Row | Lipase activity (lipase; 60 minutes at 37° C., mean +/- standard deviation) | % inhibition of the lipase (lipase; vs control) | Compound | IL-8 (TLR-3) [pg/mg proteins] | IL-8 % protection (TLR-3) [%***] | hBD2 % protection (TLR-3) [%***] | hBD2 (TLR-3; mean +/- sem)
1 | – | – | CO/C1=C\C(C)=C\[C@@H](C)[C@@H](O)[C@@H](C)C/C(C)=C/C=C/[C@H](OC)[C@@H]([C@@H](C)[C@@H](O)[C@H](C)[C@@]2(O)C[C@@H](O)[C@H](C)[C@@H](C(C)C)O2)OC1=O [bafilomycin] | <19 | 100 | 100 | 17 +/− 2 pg/mg proteins
2 | 2.11 +/− 0.01 mU/mL | 50*** % | O=C1O[C@H]([C@@H](O)CO)C(O)=C1O [Vitamin C] | – | – | – | –
